# Patent US12690589B2, “Herbicidal compositions comprising pyroxasulfone” (BASF SE, priority 2024, dated 2026)
# Assays:
# Assay in all cases: Post-emergence application in field trials, herbicidal activity (damage scale 0 to 100%)
# Assay type in all cases: in vivo
# [1] = system: Digitaria sanguinalis (DIGSA)
# Protocol: (§1) In the examples below, using the method of S. R. Colby (1967) “Calculating synergistic and antagonistic responses of herbicide combinations”, Weeds 15, p. 22ff., the value E, which is expected if the activity of the individual active compounds is only additive, was calculated:
# (§2) [formula] • wherein • X=percent activity using active herbicide A at an application rate a; • Y=percent activity using active herbicide B (e.g. pyroxasulfone) at an application rate b; • E=expected activity (in %) by A+B at application rates a+b.
# (§3) For 3-component mixtures the synergistic response was calculated as described in: Ferry, Nancy; Stanley, Bruce H.; and Armel, Gregory (2005). “DESIGN AND ANALYSIS OF BIOLOGICAL ASSAYS OF MIXTURES,” Conference on Applied Statistics in Agriculture. https://doi.org/10.4148/2475-7772.1133. According to this publication, the Colby calculation can be generalized to a third mixing partner, Z, employing the following formula: […]
# (§4) If the value found experimentally is higher than the value E calculated according to Colby, a synergistic effect is present.
# (§5) On field test sites, natural weed infestation or seeded weeds were treated post-emergence of the weeds.
# (§6) In the field trials, the weeds were treated as indicated below.
# (§7) In the following experiments, the herbicidal activity for the individual herbicidal compositions (solo and mixture applications) was assessed at the indicated days after treatment (DAT). The assessments for the damage on undesired weeds caused by the composition was carried out using a scale from 0 to 100%, compared to the untreated control plants. Here, 0 means no damage and 100 means complete destruction of the plants.
# (§8) Herbicide A-1 (342 g/l) and pyroxasulfone (500 g/l) were, together with addition of 0.25 v/v % MSO (methylated seed oil) as adjuvant, formulated in 200 l/ha water as distribution medium and sprayed with commercial flat fan nozzles.
# (§9) Herbicide A-1 (342 g/l), pyroxasulfone (500 g/l) and trifludimoxazin (500 g/l) were, together with addition of 0.25 v/v % MSO (methylated seed oil) as adjuvant, formulated in 200 l/ha water as distribution medium and sprayed with commercial flat fan nozzles.
# (§10) Herbicide A-1 (342 g/I), pyroxasulfone (500 g/l) and glyphosate-isopropylammonium (356 g/l) were, together with addition of 0.25 v/v % MSO (methylated seed oil) as adjuvant, formulated in 200 l/ha water as distribution medium and sprayed with commercial flat fan nozzles.
# (§11) Herbicide A-1 (342 g/l), pyroxasulfone (500 g/l) and glufosinate-P-ammonium (211 g/l) were, together with addition of 0.25 v/v % MSO (methylated seed oil) as adjuvant, formulated in 200 l/ha water as distribution medium and sprayed with commercial flat fan nozzles.
# (§12) Herbicide A-1 (342 g/l), pyroxasulfone (500 g/l) and 2,4-D-choline (456 g/l) were, together with addition of 0.25 v/v % MSO (methylated seed oil) as adjuvant, formulated in 200 l/ha water as distribution medium and sprayed with commercial flat fan nozzles.
# [2] = system: Setaria verticillata (SETVE)
# Protocol: as §1, §2, §3, §4, §5, §6, §7, §8, §9, §10, §11, §12
# [3] = system: Lolium multiflorum (LOLMU)
# Protocol: as §1, §2, §3, §4, §5, §6, §7, §8, §9, §10, §11, §12
# [4] = system: Echinochloa crus-galli (ECHCG)
# Protocol: as §1, §2, §4, §5, §6, §7
# Herbicide A-1 (50 g/l) and pyroxasulfone (85% WG) were, together with addition of 0.5% MSO (methylated seed oil) as adjuvant, formulated in water as distribution medium (water volume 200 l/ha) and sprayed with commercial flat fan nozzles.
smiles,measurement,setting,value
"Cn1nc(C(F)(F)F)c(CS(=O)(=O)C2=NOC(C)(C)C2)c1OC(F)F [B, pyroxasulfone]",% Herbicidal activity,"[1]; 42 DAT, stage 22, height 10-15 cm, g ai/ha A-1 18, B 90, C-12 252",0%
same,% Herbicidal activity,"[1]; DIGSA, growth stage 22, height 10-15 cm, B 70 g ai/ha, 7 DAT, Table 4.1",0%
same,% Herbicidal activity,"[1]; DIGSA, growth stage 22, height 10-15 cm, B 70 g ai/ha, 21 DAT, Table 4.3",0%
same,% Herbicidal activity,"[1]; DIGSA, growth stage 22, height 10-15 cm, B 90 g ai/ha, 7 DAT, Table 4.1",0%
same,% Herbicidal activity,"[1]; DIGSA, growth stage 22, height 10-15 cm, B 90 g ai/ha, 21 DAT, Table 4.3",0%
same,% Herbicidal activity,"[1]; Table 8.1, 7 DAT, stage 22, height 10-15 cm, g ai/ha A-1 18, B 70, C-12 1066",0%
same,% Herbicidal activity,"[1]; Table 8.2, 21 DAT, stage 22, height 10-15 cm, g ai/ha A-1 18, B 70, C-12 1066",0%
same,% Herbicidal activity,"[1]; Table 8.4, 42 DAT, stage 22, height 10-15 cm, g ai/ha A-1 18, B 70, C-12 1066",0%
same,% Herbicidal activity,"[2]; 7 DAT, stage 21-23, height 8-16 cm, g ai/ha A-1 18, B 70, C-8 840",0%
same,% Herbicidal activity,"[2]; 7 DAT, stage 21-23, height 8-16 cm, g ai/ha A-1 18, B 70, C-12 252",0%
same,% Herbicidal activity,"[2]; 7 DAT, stage 21-23, height 8-16 cm, g ai/ha A-1 18, B 90, C-4 12.5",0%
same,% Herbicidal activity,"[2]; 7 DAT, stage 21-23, height 8-16 cm, g ai/ha A-1 18, B 90, C-8 840",0%
same,% Herbicidal activity,"[2]; 7 DAT, stage 21-23, height 8-16 cm, g ai/ha A-1 18, B 90, C-12 252",0%
same,% Herbicidal activity,"[2]; 21 DAT, stage 21-23, height 8-16 cm, g ai/ha A-1 18, B 90, C-12 252",0%
same,% Herbicidal activity,"[2]; 42 DAT, stage 21-23, height 8-16 cm, g ai/ha A-1 12.5, B 70",0%
same,% Herbicidal activity,"[2]; 42 DAT, stage 21-23, height 8-16 cm, g ai/ha A-1 12.5, B 70, C-12 252",0%
same,% Herbicidal activity,"[2]; 42 DAT, stage 21-23, height 8-16 cm, g ai/ha A-1 18, B 70",0%
same,% Herbicidal activity,"[2]; 42 DAT, stage 21-23, height 8-16 cm, g ai/ha A-1 18, B 90, C-12 252",0%
same,% Herbicidal activity,"[2]; SETVE, growth stage 21-23, height 8-16 cm, B 70 g ai/ha, 7 DAT, Table 4.1",0%
same,% Herbicidal activity,"[2]; SETVE, growth stage 21-23, height 8-16 cm, B 70 g ai/ha, 21 DAT, Table 4.3",0%
same,% Herbicidal activity,"[2]; SETVE, growth stage 21-23, height 8-16 cm, B 90 g ai/ha, 7 DAT, Table 4.1",0%
same,% Herbicidal activity,"[2]; SETVE, growth stage 21-23, height 8-16 cm, B 90 g ai/ha, 21 DAT, Table 4.3",0%
same,% Herbicidal activity,"[2]; Table 8.1, 7 DAT, stage 21-23, height 8-16 cm, g ai/ha A-1 18, B 70, C-12 1066",0%
same,% Herbicidal activity,"[2]; Table 8.2, 21 DAT, stage 21-23, height 8-16 cm, g ai/ha A-1 12.5, B 70, C-12 1066",0%
same,% Herbicidal activity,"[2]; Table 8.4, 42 DAT, stage 21-23, height 8-16 cm, g ai/ha A-1 12.5, B 70, C-12 1066",0%
same,% Herbicidal activity,"[3]; 7 DAT, stage 22-25, height 20-25 cm, g ai/ha A-1 12.5, B 70, C-12 252",10%
same,% Herbicidal activity,"[3]; 7 DAT, stage 22-25, height 20-25 cm, g ai/ha A-1 18, B 70, C-12 252",10%
same,% Herbicidal activity,"[3]; 7 DAT, stage 22-25, height 20-25 cm, g ai/ha A-1 18, B 90, C-12 252",10%
same,% Herbicidal activity,"[3]; 21 DAT, stage 22-25, height 20-25 cm, g ai/ha A-1 12.5, B 70, C-12 252",10%
same,% Herbicidal activity,"[3]; 21 DAT, stage 22-25, height 20-25 cm, g ai/ha A-1 18, B 70, C-12 252",10%
same,% Herbicidal activity,"[3]; 21 DAT, stage 22-25, height 20-25 cm, g ai/ha A-1 18, B 90, C-12 252",10%
same,% Herbicidal activity,"[3]; 28 DAT, stage 22-25, height 20-25 cm, g ai/ha A-1 12.5, B 70, C-12 252",10%
same,% Herbicidal activity,"[3]; 28 DAT, stage 22-25, height 20-25 cm, g ai/ha A-1 18, B 70, C-12 252",10%
same,% Herbicidal activity,"[3]; 28 DAT, stage 22-25, height 20-25 cm, g ai/ha A-1 18, B 90, C-12 252",10%
same,% Herbicidal activity,"[3]; LOLMU, growth stage 22-25, height 20-25 cm, B 70 g ai/ha, 21 DAT, Table 4.4",20%
same,% Herbicidal activity,"[3]; LOLMU, growth stage 22-25, height 20-25 cm, B 90 g ai/ha, 7 DAT, Table 4.2",10%
same,% Herbicidal activity,"[3]; LOLMU, growth stage 22-25, height 20-25 cm, B 90 g ai/ha, 21 DAT, Table 4.4",10%
same,% Herbicidal activity,"[4]; 7 DAT, stage 23-30, height 15-20 cm, g ai/ha A-1 12.5, B 70, C-12 252",10%
same,% Herbicidal activity,"[4]; 21 DAT, stage 23-30, height 15-20 cm, g ai/ha A-1 12.5, B 70, C-12 252",10%
same,% Herbicidal activity,"[4]; 28 DAT, stage 23-30, height 15-20 cm, g ai/ha A-1 12.5, B 70, C-12 252",10%
same,% Herbicidal activity,"[4]; ECHCG, height 20-25 cm, B 120 g ai/ha, 21 DAT, Table 2.3",0%
same,% Herbicidal activity,"[4]; Table 8.2, 21 DAT, stage 23-30, height 15-20 cm, g ai/ha A-1 18, B 70, C-12 1066",0%
same,% Herbicidal activity,"[4]; Table 8.2, 21 DAT, stage 23-30, height 15-20 cm, g ai/ha A-1 18, B 90, C-12 1066",0%
same,% Herbicidal activity,"[4]; Table 8.3, 28 DAT, stage 23-30, height 15-20 cm, g ai/ha A-1 18, B 70, C-12 1066",0%
same,% Herbicidal activity,"[4]; Table 8.3, 28 DAT, stage 23-30, height 15-20 cm, g ai/ha A-1 18, B 90, C-12 1066",0%
